Usually IC50 stands for the concentration at which inhibition is half-maximal. A lower IC50 goes with greater potency.

From publication PMC6321601 (Molecules, 2018) come the findings set out here.

SMILES strings stand for the structures.

Test [1] relates to HepG-2 human hepatocellular carcinoma cells. Description: MTT assay, proliferation of HepG-2 cells. Format: cell-based. The following applies: Homo sapiens, HepG2, 72 h incubation, mean of three independent experiments. The protocol:
(§1) HepG-2 human hepatocellular carcinoma cells and L-O2 human normal liver cells were maintained in DMEM culture medium supplemented with 10% FBS at 37 °C under a humidified atmosphere with 5% CO2.
(§2) HepG-2 and L-O2 cells in logarithmic growth phase were seeded into a 96-well plate at 5 × 10^3/well/200 µL. After 12 h, compounds at different concentrations were added and incubated for 72 h at 37 °C, 5% CO2. Then, 20 µL MTT (5 mg/mL) was added into each well and incubated for 4 h. The supernatant was discarded, and the precipitate was dissolved with DMSO. The absorbance of the optical density (OD) at 570 nm was detected using a microplate reader and the IC50 was calculated with GraphPad Prism 5.
In general terms: Tetrazolium assays rely on reduction of a dye to a coloured formazan, in cell work by metabolically active cells.

For test [2], the system named is L-O2 human normal liver cells. The experiment in a line: MTT assay, toxicity against L-O2 normal cells. Format: cell-based. The following applies: Homo sapiens, 72 h incubation, mean of three independent experiments. The method, then: as §1, §2

Turning to `CC(=O)OC(C)(C)/C=C/C(=O)[C@](C)(O)C1[C@H](OC(=O)CCCN(C)C(=O)OC(C)(C)C)C[C@@]2(C)C3CC=C4C(C[C@H](O)C(=O)C4(C)C)[C@]3(C)C(=O)C[C@]12C` (stereo partly drawn) [Compound 3f, (2S,9R,13R,14S,16R)-17-((R,E)-6-Acetoxy-2-hydroxy-6-methyl-3-oxohept-4-en-2-yl)-2-hydroxy-4,4,9,13,14-pentamethyl-3,11-dioxo-2,3,4,7,8,9,10,11,12,13,14,15,16,17-tetradecahydro-1H-cyclopenta[a]phenanthren-16-yl 4-((tert-butoxycarbonyl)(methyl)amino)butanoate], the half-inhibitory concentration (IC50) in test [1] was 0.93 ± 0.06 µM; in test [2], 0.41 ± 0.11 µM.

As for `CC(=O)OC(C)(C)/C=C/C(=O)[C@](C)(O)C1[C@H](OC(=O)CCc2ccccc2NC(=O)OC(C)(C)C)C[C@@]2(C)C3CC=C4C(C[C@H](O)C(=O)C4(C)C)[C@]3(C)C(=O)C[C@]12C` (stereo partly drawn) [Compound 3g, (2S,9R,13R,14S,16R)-17-((R,E)-6-Acetoxy-2-hydroxy-6-methyl-3-oxohept-4-en-2-yl)-2-hydroxy-4,4,9,13,14-pentamethyl-3,11-dioxo-2,3,4,7,8,9,10,11,12,13,14,15,16,17-tetradecahydro-1H-cyclopenta[a]phenanthren-16-yl 3-(2-((tert-butoxycarbonyl)amino)phenyl)propanoate], the IC50 was 0.22 ± 0.11 µM in test [1] and 0.042 ± 0.001 µM in test [2].

On to `CC(=O)OC(C)(C)/C=C/C(=O)[C@](C)(O)C1[C@H](OC(=O)c2ccc(C)cc2)C[C@@]2(C)C3CC=C4C(C[C@H](O)C(=O)C4(C)C)[C@]3(C)C(=O)C[C@]12C` (stereo partly drawn) [Compound 3h, (2S,9R,13R,14S,16R)-17-((R,E)-6-Acetoxy-2-hydroxy-6-methyl-3-oxohept-4-en-2-yl)-2-hydroxy-4,4,9,13,14-pentamethyl-3,11-dioxo-2,3,4,7,8,9,10,11,12,13,14,15,16,17-tetradecahydro-1H-cyclopenta[a]phenanthren-16-yl 4-methylbenzoate], for which the half-maximal inhibitory concentration (IC50) in test [1] turned out to be 9.62 ± 1.34 µM; in test [2], 6.9 ± 1.37 µM.

As to `CC(=O)OC(C)(C)/C=C/C(=O)[C@](C)(O)C1[C@H](OC(=O)c2ccc(F)cc2)C[C@@]2(C)C3CC=C4C(C[C@H](O)C(=O)C4(C)C)[C@]3(C)C(=O)C[C@]12C` (stereo partly drawn) [Compound 3i, (2S,9R,13R,14S,16R)-17-((R,E)-6-Acetoxy-2-hydroxy-6-methyl-3-oxohept-4-en-2-yl)-2-hydroxy-4,4,9,13,14-pentamethyl-3,11-dioxo-2,3,4,7,8,9,10,11,12,13,14,15,16,17-tetradecahydro-1H-cyclopenta[a]phenanthren-16-yl 4-fluorobenzoate], the results for the half-inhibitory concentration (IC50) in test [1] and in test [2] were 7.42 ± 0.4 µM and 4.42 ± 0.97 µM, respectively.

Take `CC(=O)OC(C)(C)/C=C/C(=O)[C@](C)(O)C1[C@H](OC(=O)c2ccc(Cl)cc2)C[C@@]2(C)C3CC=C4C(C[C@H](O)C(=O)C4(C)C)[C@]3(C)C(=O)C[C@]12C` (stereo partly drawn) [Compound 3j, (2S,9R,13R,14S,16R)-17-((R,E)-6-Acetoxy-2-hydroxy-6-methyl-3-oxohept-4-en-2-yl)-2-hydroxy-4,4,9,13,14-pentamethyl-3,11-dioxo-2,3,4,7,8,9,10,11,12,13,14,15,16,17-tetradecahydro-1H-cyclopenta[a]phenanthren-16-yl 4-chlorobenzoate]: the figures for the IC50 in test [1] and in test [2] were 4.67 ± 0.28 µM and 3.57 ± 2.58 µM, respectively.

Consider `CC(=O)OC(C)(C)/C=C/C(=O)[C@](C)(O)C1[C@H](OC(=O)c2ccc(Br)cc2)C[C@@]2(C)C3CC=C4C(C[C@H](O)C(=O)C4(C)C)[C@]3(C)C(=O)C[C@]12C` (stereo partly drawn) [Compound 3k, (2S,9R,13R,14S,16R)-17-((R,E)-6-Acetoxy-2-hydroxy-6-methyl-3-oxohept-4-en-2-yl)-2-hydroxy-4,4,9,13,14-pentamethyl-3,11-dioxo-2,3,4,7,8,9,10,11,12,13,14,15,16,17-tetradecahydro-1H-cyclopenta[a]phenanthren-16-yl 4-bromobenzoate], for which the IC50 in test [1] was determined as 2.99 ± 2.06 µM; in test [2] it was 1.93 ± 0.32 µM.

Take `COc1ccc(C(=O)O[C@@H]2C[C@@]3(C)C4CC=C5C(C[C@H](O)C(=O)C5(C)C)[C@]4(C)C(=O)C[C@]3(C)C2[C@@](C)(O)C(=O)/C=C/C(C)(C)OC(C)=O)cc1` (stereo partly drawn) [Compound 3l, (2S,9R,13R,14S,16R)-17-((R,E)-6-Acetoxy-2-hydroxy-6-methyl-3-oxohept-4-en-2-yl)-2-hydroxy-4,4,9,13,14-pentamethyl-3,11-dioxo-2,3,4,7,8,9,10,11,12,13,14,15,16,17-tetradecahydro-1H-cyclopenta[a]phenanthren-16-yl 4-methoxybenzoate]: the half-maximal inhibitory concentration (IC50) in test [1] was 3.71 ± 1.69 µM; in test [2] it was 2.47 ± 0.47 µM.

For `CC(=O)OC(C)(C)/C=C/C(=O)[C@](C)(O)C1[C@H](OC(=O)c2ccc([N+](=O)[O-])cc2)C[C@@]2(C)C3CC=C4C(C[C@H](O)C(=O)C4(C)C)[C@]3(C)C(=O)C[C@]12C` (stereo partly drawn) [Compound 3m, (2S,9R,13R,14S,16R)-17-((R,E)-6-Acetoxy-2-hydroxy-6-methyl-3-oxohept-4-en-2-yl)-2-hydroxy-4,4,9,13,14-pentamethyl-3,11-dioxo-2,3,4,7,8,9,10,11,12,13,14,15,16,17-tetradecahydro-1H-cyclopenta[a]phenanthren-16-yl 4-nitrobenzoate], the results for the IC50 in test [1] and in test [2] were 0.92 ± 0.44 µM and 0.74 ± 0.15 µM, respectively.

Turning to `CC(=O)OC(C)(C)/C=C/C(=O)[C@](C)(O)C1[C@H](OC(=O)c2cccc(F)c2)C[C@@]2(C)C3CC=C4C(C[C@H](O)C(=O)C4(C)C)[C@]3(C)C(=O)C[C@]12C` (stereo partly drawn) [Compound 3n, (2S,9R,13R,14S,16R)-17-((R,E)-6-Acetoxy-2-hydroxy-6-methyl-3-oxohept-4-en-2-yl)-2-hydroxy-4,4,9,13,14-pentamethyl-3,11-dioxo-2,3,4,7,8,9,10,11,12,13,14,15,16,17-tetradecahydro-1H-cyclopenta[a]phenanthren-16-yl 3-fluorobenzoate], the half-maximal inhibitory concentration (IC50) came to 4.05 ± 1.39 µM in test [1] and 2.48 ± 0.52 µM in test [2].

With `CC(=O)OC(C)(C)/C=C/C(=O)[C@](C)(O)C1[C@H](OC(=O)C=Cc2ccccc2)C[C@@]2(C)C3CC=C4C(C[C@H](O)C(=O)C4(C)C)[C@]3(C)C(=O)C[C@]12C` (stereo partly drawn) [Compound 3o, (2S,9R,13R,14S,16R)-17-((R,E)-6-Acetoxy-2-hydroxy-6-methyl-3-oxohept-4-en-2-yl)-2-hydroxy-4,4,9,13,14-pentamethyl-3,11-dioxo-2,3,4,7,8,9,10,11,12,13,14,15,16,17-tetradecahydro-1H-cyclopenta[a]phenanthren-16-yl cinnamate], the IC50 in test [1] was found to be 3.31 ± 0.24 µM; in test [2] it was 9.59 ± 2.38 µM.

Turning to `CC(=O)OC(C)(C)/C=C/C(=O)[C@](C)(O)C1[C@H](OC(=O)/C=C/c2ccc(C#N)cc2)C[C@@]2(C)C3CC=C4C(C[C@H](O)C(=O)C4(C)C)[C@]3(C)C(=O)C[C@]12C` (stereo partly drawn) [Compound 3p, (2S,9R,13R,14S,16R)-17-((R,E)-6-Acetoxy-2-hydroxy-6-methyl-3-oxohept-4-en-2-yl)-2-hydroxy-4,4,9,13,14-pentamethyl-3,11-dioxo-2,3,4,7,8,9,10,11,12,13,14,15,16,17-tetradecahydro-1H-cyclopenta[a]phenanthren-16-yl (E)-3-(4-cyanophenyl)acrylate], the concentration for half-maximal inhibition (IC50) in test [1] worked out at 2.34 ± 0.91 µM; in test [2], 1.47 ± 0.36 µM.
